Source: publication PMC6321136, “Combined In Vitro Studies and in Silico Target Fishing for the Evaluation of the Biological Activities of Diphylleia cymosa and Podophyllum hexandrum” (Molecules, 2018)
Like-named read-outs stand apart in the source and are kept apart here.

Experiments:
Anti-Inflammatory model [1] = system: Anti-Inflammatory model; set-up: method as in PubChem Bioassay AID 457; conditions: ref PubChem Bioassay AID 457; cited from earlier work
[2] = system: Cytotoxicity, Antagonist, androgen receptor (AR); set-up: method as in PubChem Bioassay AID 743041; conditions: ref PubChem Bioassay AID 743041; cited from earlier work
[3] = system: Agonist, thyroid stimulating hormone receptor (TSHR); set-up: method as in PubChem Bioassay AID 1224895; conditions: ref PubChem Bioassay AID 1224895; cited from earlier work
[4] = system: Antagonist, androgen receptor (AR); set-up: method as in PubChem Bioassay AID 743035; conditions: ref PubChem Bioassay AID 743035; cited from earlier work
[5] = Cytotoxicity in THP-1 cells, SRB method; assay type: cell-based; conditions: human, THP-1 cells (PMA-treated, adherent)
Experimental: The assay was performed following the sulforhodamine B (SRB) method. THP-1 cells (acute human monocytic leukemia cells, ATCC TIB-202) were cultured in a RPMI medium supplemented with 10% fetal bovine serum. A cell suspension was prepared at the density of 1 × 10^6 cells/mL with 2 μL of PMA (phorbol myristyl acetate, Sigma, St. Louis, MO, USA, 30 µg/mL). A portion of 100 μL of this suspension was transferred to the wells of a microplate. The plate was incubated at 37 °C, in a 5% CO2 atmosphere, for about 12 to 16 h to allow cells to adhere. After that, 100 μL of each sample (400, 200, 100, 50 and 25 μg/mL) were added to the wells. The plate was then incubated at 37 °C for 18 h. After incubation, 100 μL of cold trichloroacetic acid (TCA, 10%) solution was added in each well. The plate was incubated at 4 °C for 1 h. The supernatant was discarded and the wells were washed three times with 200 μL of distilled water. Then, the wells were allowed to dry for 24 h. […] The plate was then stirred for 5 min inside the microplate reader. The optical density was measured at 510 nm in a microplate reader. […] Cell viability was calculated according to the formula (A − B/C − B) × 100, where A, B and C corresponds to the absorbance measured for the samples, blank and negative control, respectively. […]

[6] = system: Antagonist, retinoid-related orphan receptor gamma (ROR-gamma); set-up: method as in PubChem Bioassay AID 1159523; conditions: ref PubChem Bioassay AID 1159523; cited from earlier work
[7] = system: Antagonist, androgen receptor (AR); set-up: method as in PubChem Bioassay AID 1259247; conditions: ref PubChem Bioassay AID 1259247; cited from earlier work
[8] = β-Carotene/linoleic acid co-oxidation assay
Experimental: The evaluation of the antioxidant activity using the β-carotene/linoleic acid co-oxidation system was performed according to Duarte-Almeida et al., with adaptations. The extracts were solubilized in MeOH (2.2 mg/mL) and further diluted to concentrations ranging from 3.125 to 200 μg/mL. An aliquot of 25 μL of sample solutions were added in the 96-well microplate. 25 mg of linoleic acid and 100 mg Tween 20 (Sigma, St. Louis, MO, USA) were added to a round-bottom flask containing 1 mL of a β-carotene solution (1 mg/mL, Sigma, St. Louis, MO, USA) in chloroform. The latter was removed in a rotatory evaporator and, then, 50 mL of aerated water was added to the flask, affording the β-carotene emulsion. Portions of 250 μL of the freshly prepared emulsion were added to the wells corresponding to the odd columns of a microplate. […] Readings were performed immediately at 470 nm. After the first reading, the microplate was incubated at 45 °C and the kinetic cycle was performed with readings at 15 min intervals for a total of 120 min. The antioxidant activity was expressed as % of inhibition of lipid peroxidation (%I), using the formula (I% = Ac (initial abs − Final abs) − Aam (final abs − Initial abs)/Ac × 100). Assays were performed in triplicate and IC50 values were determined by non-linear regression using GraphPad Prism, version 6.0 (GraphPad Software, San Diego, CA, USA).

THP-1 cells = THP-1 cells at 10 µM; ref [69]; cited from earlier work
[9] = system: Cytotoxicity, Agonist, nuclear factor kappa B subunit 1; set-up: method as in PubChem Bioassay AID 1159515; conditions: ref PubChem Bioassay AID 1159515; cited from earlier work
[10] = system: Cytotoxicity, Agonist, p53; set-up: method as in PubChem Bioassay AID 651633; conditions: ref PubChem Bioassay AID 651633; cited from earlier work
[11] = system: Cytotoxicity, Antagonist, androgen receptor (AR); set-up: method as in PubChem Bioassay AID 1259242; conditions: ref PubChem Bioassay AID 1259242; cited from earlier work
[12] = system: Antagonist, retinoid-related orphan receptor gamma (ROR-gamma); set-up: method as in PubChem Bioassay AID 1159521; conditions: ref PubChem Bioassay AID 1159521; cited from earlier work
Anticancer, Leukemia = system: Anticancer, Leukemia; set-up: method as in PubChem Bioassay AID 258; conditions: ref PubChem Bioassay AID 258; cited from earlier work
[13] = system: Antagonist, androgen receptor (AR); set-up: method as in PubChem Bioassay AID 743063; conditions: ref PubChem Bioassay AID 743063; cited from earlier work
Anti-Inflammatory model [14] = system: Anti-Inflammatory model; set-up: method as in PubChem Bioassay AID 489035; conditions: ref PubChem Bioassay AID 489035; cited from earlier work

COc1cc([C@@H]2c3cc4c(cc3[C@H](O)[C@H]3COC(=O)[C@H]23)OCO4)cc(OC)c1OC [Podophyllotoxin, podophyllotoxin]
400 ± 10.3 µg/mL: CC50 at 18 h [5]
Inactive: Exper. Activity (Anti-Inflammatory model [1]) | Exper. Activity [2] | Exper. Activity [3] | Exper. Activity [7] | Exper. Activity [9] | Exper. Activity [10] | Exper. Activity [11] | Exper. Activity (Anticancer, Leukemia) | Exper. Activity (Anti-Inflammatory model [14])
Active: Exper. Activity [4] | Exper. Activity [6] | Exper. Activity [12] | Exper. Activity [13]
>200 µg/mL: Antioxidant Activity (IC50-µg/mL) β-Carotene/linoleic Acid [8]
no cytotoxicity was observed: cytotoxicity (THP-1 cells)
